# Reference: ChEMBL document CHEMBL2057096, “Discovery of novel 1,2,4-thiadiazole derivatives as potent, orally active agonists of sphingosine 1-phosphate receptor subtype 1 (S1P(1))” (J Med Chem, 2012)
# Active and inactive are the calls of the source. No cut-off for these calls is given here.
# Columns and labels:
# [1] = biological target: Sphingosine 1-phosphate receptor 1 (Homo sapiens, UniProt P21453); assay: Agonist activity against S1P1 receptor by cell based FRET assay; assay type: functional
# [2] = Percentage unbound in human plasma; assay type: ADME, cell-free
# [3] = biological target: Sphingosine 1-phosphate receptor 3 (Homo sapiens, UniProt Q99500); assay: Agonist activity against S1P3 receptor by cell based FRET assay; assay type: functional
# [4] = species: Homo sapiens; assay: Selectivity ratio of EC50 for S1P3 receptor to EC50 for S1P1 receptor
# [5] = Percentage unbound in rat plasma; assay type: ADME, cell-free
# [6] = Ratio of drug level in brain to blood in C57BL/6 mouse at 2 mg/kg, ip after 1 hr; assay type: ADME, organism-based; set-up: dose 2 mg/kg, route intraperitoneal
# [7] = Permeability of the compound; assay type: ADME; conditions: not told; read-out: permeability
# [8] = Ratio of drug level in brain to blood in C57BL/6 mouse at 2 mg/kg, ip after 4 hrs; assay type: ADME, organism-based; set-up: dose 2 mg/kg, route intraperitoneal
# [9] = biological target: Cytochrome P450 2C9 (Homo sapiens, UniProt P11712); assay: Inhibition of CYP2C9; assay type: ADME
# [10] = Solubility of the compound; assay type: physicochemical
# [11] = Half life in mouse; assay type: ADME, organism-based; conditions: in vivo
# [12] = system: Mus musculus; assay: Antiinflammatory activity in C57BL/6 mouse EAE model assessed as decrease in clinical symptoms at 1 mg/kg, po administered qd after 10 days post immunization; assay type: functional, organism-based; set-up: dose 1 mg/kg
# [13] = AUC (0 to 24 hrs) in mouse; assay type: ADME, organism-based; set-up: time < 24 hr; conditions: plasma
# [14] = system: Mus musculus; assay: Decrease in lymphocyte count in mouse acute lymphopenia model at 1 mg/kg, po after 4 hrs by flow cytometry relative to base line; assay type: functional; set-up: scale not given: the % may be the effect or the level left
# [15] = system: Mus musculus; assay: Decrease in lymphocyte count in mouse acute lymphopenia model at 1 mg/kg, po after 24 hrs by flow cytometry relative to base line; assay type: functional; set-up: scale not given: the % may be the effect or the level left
# [16] = Oral bioavailability in mouse; assay type: ADME, organism-based; conditions: in vivo
# [17] = biological target: Cytochrome P450 2D6 (Homo sapiens, UniProt P10635); assay: Inhibition of CYP2D6; assay type: ADME
# Cytochrome P450 2D6, sequence (P10635 whole entry): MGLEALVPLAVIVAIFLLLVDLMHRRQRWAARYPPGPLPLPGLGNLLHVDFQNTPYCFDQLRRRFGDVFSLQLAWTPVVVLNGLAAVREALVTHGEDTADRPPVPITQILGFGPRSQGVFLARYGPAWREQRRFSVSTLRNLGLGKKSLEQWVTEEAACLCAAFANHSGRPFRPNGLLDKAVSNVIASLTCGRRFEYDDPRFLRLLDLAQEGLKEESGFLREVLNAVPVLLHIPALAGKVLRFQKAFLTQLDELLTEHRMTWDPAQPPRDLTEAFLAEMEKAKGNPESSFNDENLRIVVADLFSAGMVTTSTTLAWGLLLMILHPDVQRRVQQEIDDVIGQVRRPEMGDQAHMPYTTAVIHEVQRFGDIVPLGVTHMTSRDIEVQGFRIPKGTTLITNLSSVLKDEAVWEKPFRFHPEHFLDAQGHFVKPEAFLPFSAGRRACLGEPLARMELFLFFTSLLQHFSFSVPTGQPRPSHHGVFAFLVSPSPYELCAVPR
# Cytochrome P450 2C9, sequence (P11712 whole entry): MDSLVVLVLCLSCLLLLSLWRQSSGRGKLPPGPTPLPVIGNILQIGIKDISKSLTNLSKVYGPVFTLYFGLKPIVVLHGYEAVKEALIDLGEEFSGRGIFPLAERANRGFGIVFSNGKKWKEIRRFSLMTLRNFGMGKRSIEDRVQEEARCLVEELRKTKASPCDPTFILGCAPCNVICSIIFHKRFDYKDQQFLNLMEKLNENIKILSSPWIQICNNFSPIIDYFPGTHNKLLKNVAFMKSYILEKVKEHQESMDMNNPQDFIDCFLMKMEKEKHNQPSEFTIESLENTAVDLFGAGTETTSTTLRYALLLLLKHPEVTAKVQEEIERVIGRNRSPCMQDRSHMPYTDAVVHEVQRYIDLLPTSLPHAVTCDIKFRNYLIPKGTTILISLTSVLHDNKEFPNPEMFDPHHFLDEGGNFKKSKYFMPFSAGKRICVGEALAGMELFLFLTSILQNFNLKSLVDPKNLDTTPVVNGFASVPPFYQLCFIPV
# Sphingosine 1-phosphate receptor 3, sequence (Q99500 whole entry): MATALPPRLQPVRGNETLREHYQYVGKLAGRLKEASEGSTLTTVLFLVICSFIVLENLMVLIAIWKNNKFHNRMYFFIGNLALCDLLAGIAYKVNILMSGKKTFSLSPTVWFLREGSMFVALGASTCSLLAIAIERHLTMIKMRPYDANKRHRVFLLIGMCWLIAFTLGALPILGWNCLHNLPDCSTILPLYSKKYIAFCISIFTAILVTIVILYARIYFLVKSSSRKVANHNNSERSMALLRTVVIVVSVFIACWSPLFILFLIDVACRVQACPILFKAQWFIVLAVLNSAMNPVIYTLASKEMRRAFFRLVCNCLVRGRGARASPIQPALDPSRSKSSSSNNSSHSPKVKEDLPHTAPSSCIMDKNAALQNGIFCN
# Sphingosine 1-phosphate receptor 1, sequence (P21453 whole entry): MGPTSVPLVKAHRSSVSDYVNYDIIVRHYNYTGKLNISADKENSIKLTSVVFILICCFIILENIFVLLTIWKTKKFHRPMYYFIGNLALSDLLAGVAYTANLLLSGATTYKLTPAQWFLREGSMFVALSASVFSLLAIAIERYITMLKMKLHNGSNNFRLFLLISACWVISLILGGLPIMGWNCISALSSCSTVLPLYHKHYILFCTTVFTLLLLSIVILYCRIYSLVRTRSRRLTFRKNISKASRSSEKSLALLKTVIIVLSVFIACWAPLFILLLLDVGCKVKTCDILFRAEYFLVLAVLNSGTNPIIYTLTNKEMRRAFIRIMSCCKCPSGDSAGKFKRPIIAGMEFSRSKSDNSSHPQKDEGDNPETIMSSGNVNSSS
Compound,EC50 [1],fraction unbound [2],EC50 [3],also measured
CCc1c(CCCC(=O)O)cccc1-c1cc(-c2ccc(OC(C)C)c(C#N)c2)ncn1,> 3160 nM,,,
CCc1c(CN(C)C(C)(C)C(=O)O)cccc1-c1nsc(-c2ccc(OC(C)C)c(C(F)(F)F)c2)n1,100 nM,4e-05,> 10000 nM,Ratio EC50 [4]: > 1000
CCc1c(CCCC(=O)O)cccc1-c1cnn(-c2ccc(OC(C)C)c(C#N)c2)c1,631 nM,,,
CCc1c(CCCC(=O)O)cccc1-c1nsc(-c2ccc(N3CCN(C)CC3)c(C(F)(F)F)c2)n1,> 3160 nM,,,fraction unbound [5]: 0.0032
CCc1c(CCN2CC(C(=O)O)C2)cccc1-c1nsc(-c2ccc(CC(C)C)c(C#N)c2)n1,0.794 nM,0.0071,2510 nM,Ratio EC50 [4]: > 1000
CCc1c(CCN(C)CC(=O)O)cccc1-c1nsc(-c2ccc(OC(C)C)c(C(F)(F)F)c2)n1,0.02 nM,0.0021,> 3160 nM,Ratio EC50 [4]: > 1000
CCc1c(CCCC(=O)O)cncc1-c1nsc(-c2ccc(OC(C)C)c(C(F)(F)F)c2)n1,25.1 nM,0.0012,,
CCc1c(CCCC(=O)O)cccc1-c1cc(-c2ccc(OC(C)C)c(C#N)c2)n[nH]1,> 10000 nM,,,
CCc1c(CCCC(=O)O)cccc1-c1nsc(-c2ccc(CC(C)C)c(C#N)c2)n1,1.26 nM,0.0003,,
CCc1c(CCCC(=O)O)cccc1-c1ccc(-c2ccc(OC(C)C)c(C#N)c2)cn1,31.6 nM,,,
CCc1c(CN2CC(C(=O)O)C2)cccc1-c1nsc(-c2ccc(OC(C)C)c(Cl)c2)n1,3.98 nM,0.0096,> 3160 nM,Ratio EC50 [4]: > 1000
CCc1c(CCCC(=O)O)cccc1-c1nsc(-c2ccc(-c3ccccc3)c(C(F)(F)F)c2)n1,5.01 nM,,,
CCc1c(CCCC(=O)O)cccc1-c1nsc(-c2ccc(N3CCOCC3)c(C(F)(F)F)c2)n1,126 nM,,,fraction unbound [5]: 0.0006
CCc1c(CCCC(=O)O)cccc1-c1nsc(-c2ccc(N3CCCCC3)c(C(F)(F)F)c2)n1,2 nM,1e-05,,
CCc1c(CCCC(=O)O)cccc1-c1ncc(-c2ccc(OC(C)C)c(C#N)c2)cn1,25.1 nM,,,
CCc1c(CN2CC(C(=O)O)C2)cccc1-c1nsc(-c2ccc(CC(C)C)c(C#N)c2)n1,7.94 nM,0.0128,> 3160 nM,Ratio EC50 [4]: > 1000
CCc1c(CCN2CC(C(=O)O)C2)cccc1-c1nsc(-c2ccc(OC(C)C)c(Cl)c2)n1,0.251 nM,0.0067,> 3160 nM,Ratio EC50 [4]: > 1000
CCc1c(CN(C)CC(=O)O)cccc1-c1nsc(-c2ccc(OC(C)C)c(C(F)(F)F)c2)n1,10 nM,0.0049,> 10000 nM,Ratio EC50 [4]: > 1000
CCc1c(CCN2CCC(C(=O)O)CC2)cccc1-c1nsc(-c2ccc(OC(C)C)c(C(F)(F)F)c2)n1,0.1 nM,0.0017,2510 nM,Ratio EC50 [4]: > 1000
CCc1c(-c2nsc(-c3ccc(CC(C)C)c(C#N)c3)n2)ccnc1CCCC(=O)O,158 nM,0.0019,,
CCc1c(CCCC(=O)O)cccc1-c1nsc(-c2ccc(OC(C)C)c(Cl)c2)n1,3.98 nM,0.0015,,
CCc1c(CCCC(=O)O)cccc1-c1cc(-c2ccc(OC(C)C)c(C#N)c2)no1,5.01 nM,,,
CCc1c(CCNCC(=O)O)cccc1-c1nsc(-c2ccc(OC(C)C)c(C(F)(F)F)c2)n1,0.0158 nM,0.0013,> 3160 nM,Ratio EC50 [4]: > 1000
CCc1c(CCN2CC(O)C2)cccc1-c1nsc(-c2ccc(CC(C)C)c(C#N)c2)n1,200 nM,0.00091,> 3160 nM,

Compound,EC50 [1],fraction unbound [2],EC50 [3],also measured
CCc1c(CCCC(=O)O)cccc1-c1ccnc(-c2ccc(OC(C)C)c(C#N)c2)n1,> 3160 nM,,,
CCc1c(CCCC(=O)O)cncc1-c1nsc(-c2ccc(CC(C)C)c(C#N)c2)n1,398 nM,0.0014,,
CCc1c(CCCC(=O)O)cccc1-c1ccc(-c2ccc(OC(C)C)c(C#N)c2)s1,3.98 nM,,> 10000 nM,Kp at 1 h [6]: 1; Papp [7]: 30 ×10⁻⁶ cm/s; fraction unbound [5]: 0.0002; Kp at 4 h [8]: 1.5; IC50 [9]: 1580 nM; solubility [10]: 115 µg/mL
CCc1c(CCCC(=O)O)cccc1-c1nsc(-c2cnc(OC(C)C)c(C(F)(F)F)c2)n1,5.01 nM,0.00031,,
CCc1c(CCCC(=O)O)cncc1-c1nsc(-c2ccc(OC(C)C)c(Cl)c2)n1,251 nM,0.0019,,
CCc1c(CCCC(=O)O)cccc1-c1ccc(-c2ccc(OC(C)C)c(C#N)c2)nc1,31.6 nM,,,
CCc1c(CCCC(=O)O)cccc1-c1ccc(-c2ccc(OC(C)C)c(C#N)c2)nn1,631 nM,,,
CCc1c(CCCC(=O)O)cccc1-c1nc(-c2ccc(OC(C)C)c(C#N)c2)ns1,1.26 nM,,,
CCc1c(CN2CC(C(=O)O)C2)cccc1-c1nsc(-c2ccc(OC(C)C)c(C(F)(F)F)c2)n1,0.251 nM,0.0026,2510 nM,Ratio EC50 [4]: > 1000
CCc1c(CCCC(=O)O)cccc1-c1nsc(-c2ccc(OC(C)C)c(C#N)c2)n1,2.51 nM,0.0021,> 10000 nM,Kp at 1 h [6]: 0.36; half-life [11]: 1.5 h; Papp [7]: 32 ×10⁻⁶ cm/s; Activity [12]: Active; AUC(0-t) at 24 h [13]: 2600 ng·h/mL; Kp at 4 h [8]: 0.52; Activity [14]: 22.7%; IC50 [9]: 5010 nM; Activity [15]: 87.9%; bioavailability [16]: 87%; solubility [10]: 160 µg/mL
CCc1c(CCCC(=O)O)cccc1-c1nnc(-c2ccc(OC(C)C)c(C#N)c2)o1,3.16 nM,,> 10000 nM,Kp at 1 h [6]: 0.11; Papp [7]: 24 ×10⁻⁶ cm/s; fraction unbound [5]: 0.0021; Kp at 4 h [8]: 0.09; IC50 [9]: 7940 nM; solubility [10]: 187 µg/mL
CCc1c(CCCC(=O)O)cccc1-c1nsc(-c2ccc(OC(C)C)c(C(F)(F)F)c2)n1,2 nM,0.00014,,
CCc1c(CCCC(=O)O)cccc1-c1ccc(-c2ccc(OC(C)C)c(C#N)c2)cc1,1.58 nM,,> 10000 nM,Kp at 1 h [6]: 0.93; Papp [7]: 31 ×10⁻⁶ cm/s; fraction unbound [5]: 0.0001; Kp at 4 h [8]: 0.95; IC50 [9]: 3980 nM; solubility [10]: 154 µg/mL
CCc1c(CCN2CC(C(=O)O)C2)cccc1-c1nsc(-c2ccc(OC(C)C)c(C(F)(F)F)c2)n1,0.251 nM,0.0025,3160 nM,Ratio EC50 [4]: > 1000
CCc1c(CCCC(=O)O)cccc1-c1ccn(-c2ccc(OC(C)C)c(C#N)c2)n1,2510 nM,,,
CCc1c(CN2CCC(C(=O)O)CC2)cccc1-c1nsc(-c2ccc(OC(C)C)c(C(F)(F)F)c2)n1,15.8 nM,,> 10000 nM,fraction unbound [5]: 0.0038; Ratio EC50 [4]: > 1000
CCc1c(CCN2CCCCC2)cccc1-c1nsc(-c2ccc(CC(C)C)c(C#N)c2)n1,1580 nM,0.00017,> 10000 nM,
CCCCCCCCc1ccc(CCC(N)(CO)CO)cc1,,,,Activity [12]: Active
CCc1c(CCCC(=O)O)cccc1-c1cnc(-c2ccc(OC(C)C)c(C#N)c2)[nH]1,> 10000 nM,,,
CCc1c(CCCC(=O)O)cccc1-c1cccc(-c2ccc(OC(C)C)c(C#N)c2)n1,> 3160 nM,,,
CCc1c(CCCC(=O)O)cccc1-c1cnc(-c2ccc(OC(C)C)c(C#N)c2)s1,3.16 nM,0.001,> 10000 nM,Kp at 1 h [6]: 0.38; half-life [11]: 3.6 h; Papp [7]: 22 ×10⁻⁶ cm/s; Activity [12]: inactive; AUC(0-t) at 24 h [13]: 8340 ng·h/mL; Kp at 4 h [8]: 0.35; Activity [14]: 15.3%; IC50 [9]: 3980 nM; Activity [15]: 62.6%; bioavailability [16]: 100%; solubility [10]: 125 µg/mL
CCc1c(CCCC(=O)O)cccc1-c1nccc(-c2ccc(OC(C)C)c(C#N)c2)n1,> 3160 nM,,,
CCc1c(CCCC(=O)O)cccc1-c1cnc(-c2ccc(OC(C)C)c(C#N)c2)nc1,1 nM,0.0019,> 10000 nM,Kp at 1 h [6]: 0.47; half-life [11]: 8 h; Papp [7]: 19 ×10⁻⁶ cm/s; Activity [12]: Active; AUC(0-t) at 24 h [13]: 11500 ng·h/mL; Kp at 4 h [8]: 0.48; Activity [14]: 34.9%; Activity [15]: 103.2%; bioavailability [16]: 78%; solubility [10]: 161 µg/mL; IC50 [17]: 6310 nM
